pIC50: −log10 of the molar value. Each block holds one compound with its values, some of them ahead of it.
Test system: 653999-131-R-J2-PDC complex spheroids, growth inhibition
Test: Anticancer human tumor 653999-131-R-J2-PDC patient-derived lung adenocarcinoma cell line growth inhibition [RAS]
Details: for pIC50: curve of first compound; for viability, T/C: stronger effect = lower value
Summary of the method: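 Agents were tested in combination matrices in half-log decrements from a top concentration at or near clinical Cmax (10 microM if undetermined). Targets were multi-cell spheroids of tumour lines plus HUVEC and MSC stromal cells.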
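Also: spheroids exposed to the agents for seven days before the readout.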

- pIC50 (second compound 0.000949 µM): 6.19
- pIC50 (second compound 0.003 µM): 6.72
- pIC50 (second compound 0.00949 µM): > 7.50
- pIC50 (second compound 0.03 µM): > 7.50
- pIC50 (second compound 0.0949 µM): > 7.50
- pIC50 (second compound 0.3 µM): > 7.50
Structure (SMILES): CC(C)NCC(C(=O)N1CCN(c2ncnc3c2C(C)CC3O)CC1)c1ccc(Cl)cc1 (centres undefined) + CCn1c(-c2cc(N3CCN(C)CC3)cnc2C(C)OC)c2c3cc(ccc31)-c1csc(n1)CC(NC(=O)C1CC1C)C(=O)N1CCCC(N1)C(=O)OCC(C)(C)C2
- viability, T/C (second compound 0.000949 µM, first compound 0.0316 µM): 79.2%
- viability, T/C (second compound 0.000949 µM, first compound 0.1 µM): 89.7%
- viability, T/C (second compound 0.000949 µM, first compound 0.316 µM): 61.1%
- viability, T/C (second compound 0.000949 µM, first compound 1 µM): 43.9%
- viability, T/C (second compound 0.000949 µM, first compound 3.16 µM): 26.6%
- viability, T/C (second compound 0.000949 µM, first compound 10 µM): 26.9%
- viability, T/C (second compound 0.003 µM, first compound 0.0316 µM): 72.5%
- viability, T/C (second compound 0.003 µM, first compound 0.1 µM): 52.9%
- viability, T/C (second compound 0.003 µM, first compound 0.316 µM): 50.8%
- viability, T/C (second compound 0.003 µM, first compound 1 µM): 29.6%
- viability, T/C (second compound 0.003 µM, first compound 3.16 µM): 26.6%
- viability, T/C (second compound 0.003 µM, first compound 10 µM): 20.4%
- viability, T/C (second compound 0.00949 µM, first compound 0.0316 µM): 49.7%
- viability, T/C (second compound 0.00949 µM, first compound 0.1 µM): 39.6%
- viability, T/C (second compound 0.00949 µM, first compound 0.316 µM): 38.4%
- viability, T/C (second compound 0.00949 µM, first compound 1 µM): 28.8%
- viability, T/C (second compound 0.00949 µM, first compound 3.16 µM): 16.4%
- viability, T/C (second compound 0.00949 µM, first compound 10 µM): 14.4%
- viability, T/C (second compound 0.03 µM, first compound 0.0316 µM): 34.2%
- viability, T/C (second compound 0.03 µM, first compound 0.1 µM): 36.5%
- viability, T/C (second compound 0.03 µM, first compound 0.316 µM): 23.9%
- viability, T/C (second compound 0.03 µM, first compound 1 µM): 18.6%
- viability, T/C (second compound 0.03 µM, first compound 3.16 µM): 10.3%
- viability, T/C (second compound 0.03 µM, first compound 10 µM): 9.69%
- viability, T/C (second compound 0.0949 µM, first compound 0.0316 µM): 27.3%
- viability, T/C (second compound 0.0949 µM, first compound 0.1 µM): 23.8%
- viability, T/C (second compound 0.0949 µM, first compound 0.316 µM): 18.5%
- viability, T/C (second compound 0.0949 µM, first compound 1 µM): 13.7%
- viability, T/C (second compound 0.0949 µM, first compound 3.16 µM): 9.85%
- viability, T/C (second compound 0.0949 µM, first compound 10 µM): 5.97%
- viability, T/C (second compound 0.3 µM, first compound 0.0316 µM): 24%
- viability, T/C (second compound 0.3 µM, first compound 0.1 µM): 20.4%
- viability, T/C (second compound 0.3 µM, first compound 0.316 µM): 20.9%
- viability, T/C (second compound 0.3 µM, first compound 1 µM): 14.7%
- viability, T/C (second compound 0.3 µM, first compound 3.16 µM): 8.46%
- viability, T/C (second compound 0.3 µM, first compound 10 µM): 5.88%

- pIC50 (second compound 0.00316 µM): 5.25
- pIC50 (second compound 0.01 µM): 5.27
- pIC50 (second compound 0.0316 µM): 5.28
- pIC50 (second compound 0.1 µM): 5.25
- pIC50 (second compound 0.316 µM): 5.29
- pIC50 (second compound 1 µM): 5.20
Structure (SMILES): CC1(O)CCCC1n1c(=O)c(C(F)F)cc2cnc(NC3CCN(S(C)(=O)=O)CC3)nc21 (centres undefined) + C=CC(=O)N1CCN(c2nc(OCC3CCCN3C)nc3c(F)c(-c4nc(N)cc(C)c4C(F)(F)F)c(Cl)cc23)C(C)C1
- viability, T/C (second compound 0.00316 µM, first compound 0.0316 µM): 74.3%
- viability, T/C (second compound 0.00316 µM, first compound 0.1 µM): 63.4%
- viability, T/C (second compound 0.00316 µM, first compound 0.316 µM): 57.5%
- viability, T/C (second compound 0.00316 µM, first compound 1 µM): 63.5%
- viability, T/C (second compound 0.00316 µM, first compound 3.16 µM): 75.9%
- viability, T/C (second compound 0.00316 µM, first compound 10 µM): 32.5%
- viability, T/C (second compound 0.01 µM, first compound 0.0316 µM): 82.5%
- viability, T/C (second compound 0.01 µM, first compound 0.1 µM): 65.5%
- viability, T/C (second compound 0.01 µM, first compound 0.316 µM): 56.6%
- viability, T/C (second compound 0.01 µM, first compound 1 µM): 71.9%
- viability, T/C (second compound 0.01 µM, first compound 3.16 µM): 68.8%
- viability, T/C (second compound 0.01 µM, first compound 10 µM): 27.5%
- viability, T/C (second compound 0.0316 µM, first compound 0.0316 µM): 77.6%
- viability, T/C (second compound 0.0316 µM, first compound 0.1 µM): 57.2%
- viability, T/C (second compound 0.0316 µM, first compound 0.316 µM): 63.4%
- viability, T/C (second compound 0.0316 µM, first compound 1 µM): 63.2%
- viability, T/C (second compound 0.0316 µM, first compound 3.16 µM): 68.5%
- viability, T/C (second compound 0.0316 µM, first compound 10 µM): 29%
- viability, T/C (second compound 0.1 µM, first compound 0.0316 µM): 78.4%
- viability, T/C (second compound 0.1 µM, first compound 0.1 µM): 71.7%
- viability, T/C (second compound 0.1 µM, first compound 0.316 µM): 54.4%
- viability, T/C (second compound 0.1 µM, first compound 1 µM): 64.7%
- viability, T/C (second compound 0.1 µM, first compound 3.16 µM): 76.3%
- viability, T/C (second compound 0.1 µM, first compound 10 µM): 30.7%
- viability, T/C (second compound 0.316 µM, first compound 0.0316 µM): 86.3%
- viability, T/C (second compound 0.316 µM, first compound 0.1 µM): 65.6%
- viability, T/C (second compound 0.316 µM, first compound 0.316 µM): 67.2%
- viability, T/C (second compound 0.316 µM, first compound 1 µM): 69.5%
- viability, T/C (second compound 0.316 µM, first compound 3.16 µM): 66.4%
- viability, T/C (second compound 0.316 µM, first compound 10 µM): 27.8%
- viability, T/C (second compound 1 µM, first compound 0.0316 µM): 78.3%
- viability, T/C (second compound 1 µM, first compound 0.1 µM): 55.9%
- viability, T/C (second compound 1 µM, first compound 0.316 µM): 71%
- viability, T/C (second compound 1 µM, first compound 1 µM): 64.2%
- viability, T/C (second compound 1 µM, first compound 3.16 µM): 68.4%
- viability, T/C (second compound 1 µM, first compound 10 µM): 38.2%
